Article PMC6792169 (ACS Medicinal Chemistry Letters, 2019)
Where two headings read alike, the source gives them in different places.

How the values were obtained:
[1] = system: 44 tumor cell lines; conditions: matched 44 cell line panel; cited from earlier work
[2] = system: OVCAR-3 xenograft; conditions: 50 mg/kg p.o. QD for 28 days, day 45; cited from earlier work
[3] = molecular target: PI3Kγ (Homo sapiens, UniProt P48736); assay: DiscoverX KdELECT; conditions: Inhibitor binding constant Kd PI3Kγ, fourth PI3K column of Table S2
[4] = system: OVCAR-3 xenograft; assay: OVCAR-3 xenograft model; type: in vivo, BALB/c nude mice; conditions: 6.3 mg/kg p.o. QD
[5] = system: protein and lipid kinases (KINOMEScan panel); assay: KINOMEScan panel selectivity; type: binding; conditions: 10 μM
[6] = Liver microsome stability; type: in vitro ADME; conditions: rat, liver microsomes, pH 7.4
[7] = Liver microsome stability; type: in vitro ADME; conditions: human, liver microsomes, pH 7.4
[8] = molecular target: PI3Kα (Homo sapiens, UniProt P42336); assay: DiscoverX KdELECT; conditions: Inhibitor binding constant Kd PI3Kα, first PI3K column of Table S2
[9] = system: CEREP BioPrint (P22-p) panel; assay: CEREP BioPrint; type: binding; conditions: 10 μM
[10] = Pharmacokinetics in mice; conditions: plasma, 10 mg/kg p.o.
[11] = system: 44 tumor cell lines; assay: NTRC Oncolines proliferation, panel mean; type: cell-based; conditions: 4-4 cell
[12] = Liver microsome stability; type: in vitro ADME; conditions: dog, liver microsomes, pH 7.4
[13] = molecular target: T1, PI3Kδ (Homo sapiens, UniProt O00329); assay: DiscoverX KdELECT; conditions: Inhibitor binding constant Kd PI3Kδ, third PI3K column of Table S2
T1 sequence (O00329 1-1044): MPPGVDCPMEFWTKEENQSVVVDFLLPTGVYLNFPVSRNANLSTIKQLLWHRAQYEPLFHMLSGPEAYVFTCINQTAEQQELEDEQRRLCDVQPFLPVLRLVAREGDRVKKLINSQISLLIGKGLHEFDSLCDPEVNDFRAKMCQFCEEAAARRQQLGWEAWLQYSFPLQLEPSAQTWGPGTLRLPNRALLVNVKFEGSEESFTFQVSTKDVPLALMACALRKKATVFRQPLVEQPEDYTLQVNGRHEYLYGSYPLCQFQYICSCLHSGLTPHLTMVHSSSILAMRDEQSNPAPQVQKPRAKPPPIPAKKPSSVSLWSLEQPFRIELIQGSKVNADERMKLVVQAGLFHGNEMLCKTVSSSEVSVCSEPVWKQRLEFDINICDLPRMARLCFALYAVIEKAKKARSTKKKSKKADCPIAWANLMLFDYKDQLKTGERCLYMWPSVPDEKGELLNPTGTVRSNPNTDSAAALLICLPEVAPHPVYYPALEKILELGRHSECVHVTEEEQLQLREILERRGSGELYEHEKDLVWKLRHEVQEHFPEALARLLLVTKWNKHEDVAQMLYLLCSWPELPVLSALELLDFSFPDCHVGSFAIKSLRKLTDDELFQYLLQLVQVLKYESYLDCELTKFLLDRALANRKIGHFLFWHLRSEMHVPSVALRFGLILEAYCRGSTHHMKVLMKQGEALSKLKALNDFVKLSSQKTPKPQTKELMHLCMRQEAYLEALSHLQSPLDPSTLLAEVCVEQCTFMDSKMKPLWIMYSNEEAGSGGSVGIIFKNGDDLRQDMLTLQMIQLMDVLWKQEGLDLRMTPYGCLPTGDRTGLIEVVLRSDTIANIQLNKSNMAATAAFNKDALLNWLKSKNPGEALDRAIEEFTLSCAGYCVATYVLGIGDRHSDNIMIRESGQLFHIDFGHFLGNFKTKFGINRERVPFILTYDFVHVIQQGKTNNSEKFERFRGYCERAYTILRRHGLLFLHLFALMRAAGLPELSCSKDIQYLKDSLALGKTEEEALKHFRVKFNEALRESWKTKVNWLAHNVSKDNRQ

[14] = molecular target: PI3Kβ (Homo sapiens, UniProt P42338); assay: DiscoverX KdELECT; conditions: Inhibitor binding constant Kd PI3Kβ, second PI3K column of Table S2
[15] = system: 66 cancer cell lines; assay: NTRC Oncolines proliferation, panel mean; type: cell-based; conditions: read-out: mean half-maximal growth inhibition (GI50)

Chain of PI3Kβ (P42338 whole entry): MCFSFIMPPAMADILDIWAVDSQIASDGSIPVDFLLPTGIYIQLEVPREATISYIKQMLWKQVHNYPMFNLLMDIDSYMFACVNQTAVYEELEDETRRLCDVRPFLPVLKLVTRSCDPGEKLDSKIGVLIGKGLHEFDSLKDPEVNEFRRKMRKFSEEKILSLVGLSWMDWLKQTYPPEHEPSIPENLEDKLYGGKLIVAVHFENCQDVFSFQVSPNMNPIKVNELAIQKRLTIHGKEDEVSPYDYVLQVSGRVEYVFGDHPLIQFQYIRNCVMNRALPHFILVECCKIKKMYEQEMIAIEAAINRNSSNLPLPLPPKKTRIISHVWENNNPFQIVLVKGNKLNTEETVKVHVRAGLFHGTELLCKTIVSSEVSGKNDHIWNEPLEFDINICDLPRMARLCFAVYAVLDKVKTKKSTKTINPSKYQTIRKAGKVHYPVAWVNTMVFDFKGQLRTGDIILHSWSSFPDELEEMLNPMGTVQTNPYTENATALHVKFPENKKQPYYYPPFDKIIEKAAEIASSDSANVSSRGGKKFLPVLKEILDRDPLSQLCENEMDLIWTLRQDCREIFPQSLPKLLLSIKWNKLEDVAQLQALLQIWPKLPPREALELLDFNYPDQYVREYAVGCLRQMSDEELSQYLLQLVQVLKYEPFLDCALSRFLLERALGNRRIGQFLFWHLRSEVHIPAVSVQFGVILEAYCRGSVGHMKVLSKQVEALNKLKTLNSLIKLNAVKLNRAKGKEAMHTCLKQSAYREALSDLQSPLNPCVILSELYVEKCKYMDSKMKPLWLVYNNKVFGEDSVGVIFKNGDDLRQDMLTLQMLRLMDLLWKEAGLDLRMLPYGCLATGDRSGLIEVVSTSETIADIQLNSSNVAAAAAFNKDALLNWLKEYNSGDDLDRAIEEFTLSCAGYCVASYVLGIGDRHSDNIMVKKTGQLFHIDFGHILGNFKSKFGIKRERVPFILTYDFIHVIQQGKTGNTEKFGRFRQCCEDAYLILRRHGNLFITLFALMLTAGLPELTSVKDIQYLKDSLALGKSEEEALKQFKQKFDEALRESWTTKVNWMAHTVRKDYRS
Chain of PI3Kα (P42336 whole entry): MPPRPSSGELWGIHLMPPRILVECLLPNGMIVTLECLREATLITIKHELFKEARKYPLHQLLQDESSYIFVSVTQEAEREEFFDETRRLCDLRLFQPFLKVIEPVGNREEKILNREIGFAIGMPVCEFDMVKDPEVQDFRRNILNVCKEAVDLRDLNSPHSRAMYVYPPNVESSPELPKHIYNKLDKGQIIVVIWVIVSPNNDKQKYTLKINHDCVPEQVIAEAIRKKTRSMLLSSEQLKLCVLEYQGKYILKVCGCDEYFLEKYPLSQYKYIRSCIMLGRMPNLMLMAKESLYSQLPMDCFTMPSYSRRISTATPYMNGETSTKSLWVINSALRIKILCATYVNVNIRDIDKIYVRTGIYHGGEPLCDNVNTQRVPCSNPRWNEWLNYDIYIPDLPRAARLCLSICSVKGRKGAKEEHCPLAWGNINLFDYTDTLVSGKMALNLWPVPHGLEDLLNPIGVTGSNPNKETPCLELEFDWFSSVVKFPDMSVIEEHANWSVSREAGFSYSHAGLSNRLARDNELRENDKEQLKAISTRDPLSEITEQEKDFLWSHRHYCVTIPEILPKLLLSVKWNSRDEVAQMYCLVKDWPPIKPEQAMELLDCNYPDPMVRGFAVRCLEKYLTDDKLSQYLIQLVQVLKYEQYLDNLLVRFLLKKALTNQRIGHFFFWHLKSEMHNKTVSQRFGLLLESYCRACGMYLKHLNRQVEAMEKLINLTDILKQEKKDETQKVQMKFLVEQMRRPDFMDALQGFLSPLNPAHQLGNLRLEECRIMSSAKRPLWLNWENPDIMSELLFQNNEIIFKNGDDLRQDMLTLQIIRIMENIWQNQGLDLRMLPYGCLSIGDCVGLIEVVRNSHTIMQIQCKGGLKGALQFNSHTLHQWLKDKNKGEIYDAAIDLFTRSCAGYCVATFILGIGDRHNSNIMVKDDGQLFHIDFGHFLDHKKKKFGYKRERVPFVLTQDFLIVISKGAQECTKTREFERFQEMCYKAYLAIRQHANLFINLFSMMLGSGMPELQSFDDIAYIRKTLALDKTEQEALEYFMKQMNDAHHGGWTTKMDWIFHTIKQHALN
Chain of PI3Kγ (P48736 whole entry): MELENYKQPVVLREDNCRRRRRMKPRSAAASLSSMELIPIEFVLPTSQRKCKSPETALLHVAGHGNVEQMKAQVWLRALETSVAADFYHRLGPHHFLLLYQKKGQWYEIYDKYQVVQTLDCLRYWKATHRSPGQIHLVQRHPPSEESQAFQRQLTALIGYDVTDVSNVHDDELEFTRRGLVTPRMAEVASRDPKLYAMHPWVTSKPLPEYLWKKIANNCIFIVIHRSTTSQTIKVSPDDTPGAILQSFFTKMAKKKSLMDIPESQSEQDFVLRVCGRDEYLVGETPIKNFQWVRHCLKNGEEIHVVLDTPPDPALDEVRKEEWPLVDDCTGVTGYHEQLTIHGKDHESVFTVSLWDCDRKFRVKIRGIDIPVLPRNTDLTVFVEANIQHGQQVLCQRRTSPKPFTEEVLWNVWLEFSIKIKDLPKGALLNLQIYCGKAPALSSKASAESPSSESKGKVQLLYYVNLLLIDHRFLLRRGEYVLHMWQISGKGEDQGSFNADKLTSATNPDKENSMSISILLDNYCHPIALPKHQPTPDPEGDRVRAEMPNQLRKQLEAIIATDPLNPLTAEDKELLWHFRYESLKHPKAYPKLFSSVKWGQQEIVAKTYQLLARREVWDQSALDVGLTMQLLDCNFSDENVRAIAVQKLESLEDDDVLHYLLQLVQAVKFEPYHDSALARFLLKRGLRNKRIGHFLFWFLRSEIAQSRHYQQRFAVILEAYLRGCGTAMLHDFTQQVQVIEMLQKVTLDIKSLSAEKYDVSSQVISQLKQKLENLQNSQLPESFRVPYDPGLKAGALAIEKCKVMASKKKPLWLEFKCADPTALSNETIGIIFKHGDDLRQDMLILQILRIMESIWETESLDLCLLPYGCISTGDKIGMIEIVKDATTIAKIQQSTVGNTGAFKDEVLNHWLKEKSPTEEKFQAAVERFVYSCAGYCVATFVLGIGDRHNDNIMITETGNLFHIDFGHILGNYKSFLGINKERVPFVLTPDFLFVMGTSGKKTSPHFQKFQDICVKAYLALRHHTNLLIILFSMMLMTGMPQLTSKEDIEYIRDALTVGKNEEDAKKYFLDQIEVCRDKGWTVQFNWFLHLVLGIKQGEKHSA

Structure (SMILES)	GI50 [1]	mean tumor size [2]	Kd [3]	body weight / tolerability [4]	tumor weight analysis vs vehicle ([4]; day 45)	interference with protein kinase activities [5]	remaining at 0.5 h, 1 µM [6]	remaining at 0.5 h, 1 µM [7]	Kd [8]	off-target interactions [9]	Cl [10]	GI50 [11]	remaining at 0.5 h, 1 µM [12]	Kd [13]	Kd [14]	GI50 [15]
Nc1cc(C(F)(F)F)c(-c2nc(N3CCOCC3)nc(N3CCOCC3)n2)cn1 [PQR309 (1), 5-(4,6-Dimorpholino-1,3,5-triazin-2-yl)-4-(trifluoromethyl)pyridin-2-amine]	~1000 nM	571 mm^3														
Nc1ncc(-c2nc(N3CCOCC3)nc(N3CCOCC3)n2)c(C(F)F)n1 [PQR514 (4)]			< 7 nM	no significant body weight loss was observed	significantly inhibited tumor growth	negligible interference with protein kinase activities	109 ± 10.7%	87.2 ± 3.5%	< 7 nM	With the exception of human PDE3A (phosphodiesterase 3A), no or very weak interactions were detected	15.6 mL/min/kg	240 nM	92.7 ± 0.2%	< 7 nM	< 7 nM	250 nM
C[C@H]1COCCN1c1nc(-c2cnc(N)cc2C(F)F)nc(N2CCOCC2)n1 [PQR530 (16), (S)-4-(Difluoromethyl)-5-(4-(3-methylmorpholino)-6-morpholino-1,3,5-triazin-2-yl)p yridin-2-amine]	~400 nM															
